Measured values from patent US12044683B2, “Methods and compositions concerning intestinal permeability” (THE REGENTS OF THE UNIVERSITY OF CALIFORNIA, priority 2018, dated 2024).
Several values for one entry are separate records, joined by “and”; a condition that tells them apart may be missing. Equal values may be shown once. Marks after values point to notes of the source that are not given here.

Experiments:
[1] = Solubility in resuspension solvents (NMP, water); format: physicochemical; conditions: NMP and water (50% NMP in water used for resuspension)
[2] = Blue #1 measured by LC/MS in blood/plasma after enteral administration (intestinal permeability test); format: in vivo, human; set-up: Blue #1 in blood sample, 2 H / Blue #1 in blood sample, 8 H: unit not given here; conditions: for Blue #1 in blood sample, 2 H: 2 H after dose; for Blue #1 in blood sample, 8 H: 8 H after dose
Description: High dose: 0.5 mg/kg—e.g, 35 mg in a 70 kg adult, administered as 35 ml of diluted food coloring solution (16 mg/mL diluted 1:16) was used. Five blood samples were drawn per subject (5 ml/draw): 0 hour-prior to dose, 1 hour, 2 hours, 4 hours, 8 hours. Four subjects enrolled. […]
Test subjects with clinically determined sepsis were given enteral Blue #1 at a designated time prior to scheduled blood draw. […] Sepsis was defined by the Surviving Sepsis Campaign [Crit Care Med. 2013; 41(2):580] (presence, probable or documented, of infection together with systemic manifestations such as fever, tachycardia, leukocytosis, hypotension, organ dysfunction, or decreased tissue perfusion). […] The medium dose was: 0.05 mg/kg—e.g. 3.5 mg in a 70 kg adult, administered as 35 mL of diluted food coloring solution (0.1 mg/mL), The low dose was: 0.005 mg/kg—e.g. 0.35 mg in a 70 kg, administered as 35 ml of diluted food coloring solution (0.01 mg/ml). Five blood draws per subject (5 ml/draw): 0 hour—prior to dose, 1 hour, 2 hours, 4 hours, and 8 hours, through clinically indicated, previously placed IV catheters. 14 subjects were used in this study.
Plasma concentration of Blue-1 is shown in relation to time in two patients (10-26-16) and (11-14-16) diagnosed with sepsis. Plasma preparation was done as shown in Example 5C below. Bzi-Arg_pNA was used as a STD. The data obtained is shown in Tables 2 and 3 below and in FIG. 3. The standard graph is FIG. 4.
Subjects were asked to drink a blue food coloring solution, (GATORADE for example) at 0.5 mg/kg (35 ml for a 70 kg human subject). Then a blood sample was drawn (e.g. 5 ml) at five different time periods for each subject: immediately before the drink (time zero), 1 hour, 2 hour, 4 hour and 8 hours after the drink. Subjects in Group 2 also had some of their abdominal fluid from the paracentesis saved to analyze for the presence of the dye, Plasma was prepared according to the method in the following example.
1) one volume of plasma was mixed with 3 volumes of (1:3→IPA:CAN+0.1% TFA);
2) after spin-down, 1800 μl of supernatant was evaporated (for example, by a Speed-Vac)
4) 10 μl of the re-suspended residue was injected onto a mass spectrophotometer for each analysis which corresponds to 25 μl of “pure plasma”. Quantitative analysis of the peak corresponding to the mass of Blue #1 was performed to see how much of the dye had been absorbed. Bzl-Arg_pNA is an example of a standard that worked with this assay.

[3] = studies supporting FDA approval for foods, drugs and cosmetics; cited from earlier work
fruit flies = conditions: fruit fly bodies viewed under a microscope after being given the dye; cited from earlier work
[4] = rats; Brown 1980; cited from earlier work
[5] = Non-septic 1, ICU, no vasopressor, MELD 40, Eating
[6] = Non-septic 2, ICU, no vasopressor, MELD 33, Eating
[7] = Non-septic 3, ICU, no vasopressor, MELD 17, Eating
[8] = Non-septic 4, ICU/Pressor, NE 0.4, MELD 36, Eating
[9] = Normal 1, Normal, no vasopressor, MELD 6, NPO
[10] = Normal 2, Normal, no vasopressor, MELD 6, NPO
[11] = Normal 3, Normal, no vasopressor, MELD 6, NPO
[12] = Normal 4, Normal, no vasopressor, MELD 6, NPO
[13] = Septic 1, ICU/Pressor, NE 0.12, MELD 34, NPO × meds
[14] = Septic 3 (first line so labelled, r15), ICU/Pressor, NE 0.12, MELD 39, NPO × meds
[15] = Septic 3 (second line so labelled, r17), ICU/Pressor, Vaso 4, NE 0.09, PhE 25, MELD 35, NPO × meds
[16] = Septic 4, ICU/Pressor, NE 0.25, MELD 40, NPO × meds
[17] = Septic 5, ICU/Pressor, NE 0.02, MELD 23, Eating
[18] = Septic 6, ICU/Pressor, Vaso 2, MELD 43, NPO × meds
[19] = sepsis patient of Table 2, 1 hr after ingestion
[20] = sepsis patient of Table 2, 2 hr after ingestion
[21] = sepsis patient of Table 2, 4 hr after ingestion
[22] = sepsis patient of Table 2, 8 hr after ingestion
[23] = sepsis patient of Table 3, 1 hr after ingestion
[24] = sepsis patient of Table 3, 2 hr after ingestion
[25] = sepsis patient of Table 3, 4 hr after ingestion
[26] = sepsis patient of Table 3, 8 hr after ingestion

CCN(Cc1cccc(S(=O)(=O)[O-])c1)c1ccc(C(=C2C=CC(=[N+](CC)Cc3cccc(S(=O)(=O)[O-])c3)C=C2)c2ccccc2S(=O)(=O)[O-])cc1.[Na+].[Na+] [Blue #1, disodium;2-[[4-[ethyl-[(3-sulfonatophenyl)methyl]amino]phenyl]-[4-[ethyl-[(3-sulfonatophenyl)methyl]azaniumlidene]cyclohexa-2,5-dien-1-ylidene]methyl]benzenesulfonate]
Solubility [1]: soluble in both
Blue #1 in blood sample, 2 H [2, 5]: 0.5
Blue #1 in blood sample, 8 H [2, 5]: 0.15
Blue #1 in blood sample, 2 H [2, 6]: <0.05
Blue #1 in blood sample, 8 H [2, 6]: <0.05
Blue #1 in blood sample, 2 H [2, 7]: <0.05
Blue #1 in blood sample, 8 H [2, 7]: <0.05
Blue #1 in blood sample, 2 H [2, 8]: <0.05
Blue #1 in blood sample, 8 H [2, 8]: <0.05
Blue #1 in blood sample, 2 H [2, 9]: <0.05
Blue #1 in blood sample, 8 H [2, 9]: <0.05
Blue #1 in blood sample, 2 H [2, 10]: <0.05
Blue #1 in blood sample, 8 H [2, 10]: <0.05
Blue #1 in blood sample, 2 H [2, 11]: <0.05
Blue #1 in blood sample, 8 H [2, 11]: <0.05
Blue #1 in blood sample, 2 H [2, 12]: <0.05
Blue #1 in blood sample, 8 H [2, 12]: <0.05
Blue #1 in blood sample, 2 H [2, 13]: 0.5
Blue #1 in blood sample, 8 H [2, 13]: 0.3
Blue #1 in blood sample, 2 H [2, 14]: 0.7
Blue #1 in blood sample, 8 H [2, 14]: 0.5
Blue #1 in blood sample, 2 H [2, 15]: <0.05
Blue #1 in blood sample, 8 H [2, 15]: <0.05
Blue #1 in blood sample, 2 H [2, 16]: 2.5
Blue #1 in blood sample, 8 H [2, 16]: 4.6**
Blue #1 in blood sample, 2 H [2, 17]: 0.4
Blue #1 in blood sample, 8 H [2, 17]: 0.05
Blue #1 in blood sample, 2 H [2, 18]: 1
Blue #1 in blood sample, 8 H [2, 18]: 1.5
Detectability of Blue #1 by LC/MS (FIG. 2, upper graph) ([2]; non-septic patient): not detectable
Absorption into blood in normal subjects ([2]; normal subjects (four enrolled), high dose 0.5 mg/kg oral, up to 8 hours later): wasn't any detectable absorption
Plasma concentration of Blue-1, Average [2, 19]: 1.41 nM (nM)
Plasma concentration of Blue-1, replicates A, B, C [2, 19]: 1.81 fMoles/μl (nM) and 1.13 fMoles/μl (nM) and 1.29 fMoles/μl (nM)
Plasma concentration of Blue-1, Average [2, 20]: 2.59 nM (nM)
Plasma concentration of Blue-1, replicates A, B, C [2, 20]: 2.17 fMoles/μl (nM) and 2.89 fMoles/μl (nM) and 2.72 fMoles/μl (nM)
Plasma concentration of Blue-1, Average [2, 21]: 2.03 nM (nM)
Plasma concentration of Blue-1, replicates A, B, C [2, 21]: 2.30 fMoles/μl (nM) and 1.75 fMoles/μl (nM) and 2.05 fMoles/μl (nM)
Plasma concentration of Blue-1, Average [2, 22]: 2.18 nM (nM)
Plasma concentration of Blue-1, replicates A, B, C [2, 22]: 2.44 fMoles/μl (nM) and 2.04 fMoles/μl (nM) and 2.05 fMoles/μl (nM)
Plasma concentration of Blue-1, Average [2, 23]: 1.17 nM (nM)
Plasma concentration of Blue-1, replicates A, B, C [2, 23]: 1.09 fMoles/μl (nM) (2×) and 1.33 fMoles/μl (nM)
Plasma concentration of Blue-1, Average [2, 24]: 2.29 nM (nM)
Plasma concentration of Blue-1, replicates A, B, C [2, 24]: 2.40 fMoles/μl (nM) and 2.28 fMoles/μl (nM) and 2.18 fMoles/μl (nM)
Plasma concentration of Blue-1, Average [2, 25]: 2.67 nM (nM)
Plasma concentration of Blue-1, replicates A, B, C [2, 25]: 2.53 fMoles/μl (nM) and 2.29 fMoles/μl (nM) and 3.19 fMoles/μl (nM)
Plasma concentration of Blue-1, Average [2, 26]: 3.37 nM (nM)
Plasma concentration of Blue-1, replicates A, B, C [2, 26]: 3.50 fMoles/μl (nM) and 3.04 fMoles/μl (nM) and 358 fMoles/μl (nM)
Detectability of Blue #1 by LC/MS (FIG. 2, lower graph) ([2]; septic patient): detectable
Acceptable daily intake [3]: 12 mg/kg body weight/day
Absorption by fruit flies (fruit flies): not to be absorbed
Share of the dye absorbed into the blood from the intestine [4]: more than 0.02%
